≈ marks a conversion by molar mass, not a printed value.
What was measured:
[1] = tested on: Propionibacterium acnes (ATCC 11827); test: Antibacterial activity by agar well diffusion method (zone of inhibition); type: cell-based; conditions: P. acnes, 48 h anaerobic, inhibition detected in all tested concentrations (10-1.25 μg/mL)
Description: In vitro anti-acne activity of isolated compounds 1 and 2 from the stem bark extract of Artocarpus hirsutus were evaluated against acne causing bacterium, Propionibacterium acnes. The antibacterial activity was determined by agar well diffusion method. The minimum inhibitory concentration (MIC) of the compounds were then ascertained by broth micro dilution method.
Microorganisms: Acne causing bacterium Propionibacterium acnes (ATCC 11827) was procured from American type culture collection Rockville, USA.
Media: Reinforced Clostridial Agar (Hi Media; M154) and Reinforced Clostridial broth (Hi Media; M443) were used in the experiments.
The antibacterial activities of isolated compounds were performed by agar well diffusion method. The samples were dissolved in DMSO to obtain a concentration in the range of 0.5-100 mg/mL. Propionibacterium acnes was cultured on Reinforced Clostridial Agar (RCA) M154 procured from Hi Media and incubated at 37° C. for 48 h in an anaerobic chamber providing gas mixture containing 80% nitrogen, 10% carbon dioxide and 10% hydrogen. The bacterial culture was suspended in sterile normal saline and adjusted to 1.0×10^8 CFU/mL (CLSI, M02-A11; Vol. 32 No. 1). The sterile RCA was seeded with the standardized culture of P. acnes and poured into plates. […] The diameter of zone of inhibition around the wells were measured and recorded.

[2] = tested on: Propionibacterium acnes (ATCC 11827); test: Minimum inhibitory concentration by broth micro dilution method; type: cell-based; conditions: Cutibacterium acnes, ATCC11827, P. acnes, 37° C., 48 h, anaerobic
Description: In vitro anti-acne activity of isolated compounds 1 and 2 from the stem bark extract of Artocarpus hirsutus were evaluated against acne causing bacterium, Propionibacterium acnes. The antibacterial activity was determined by agar well diffusion method. The minimum inhibitory concentration (MIC) of the compounds were then ascertained by broth micro dilution method. Microorganisms: Acne causing bacterium Propionibacterium acnes (ATCC 11827) was procured from American type culture collection Rockville, USA. Media: Reinforced Clostridial Agar (Hi Media; […]) and Reinforced Clostridial broth (Hi Media; […]) were used in the experiments. The minimum inhibitory concentrations (MIC) of the isolated compounds against P. acnes were determined by broth micro dilution method. Two-fold dilutions of the isolated compounds were prepared in Reinforced Clostridial broth (RCB) to obtain concentrations in the range of 0.1-2000 μg/mL. The diluted samples were loaded in 96-well micro titre plates. The samples were inoculated with the test culture of P. acnes so that the final concentration of the bacteria in each well is 1×10^5 CFU (CLSI, M11-A8; Vol. 32 No. 5). The plates were incubated under anaerobic conditions at 37° C. for 48 h and thereafter observed for inhibition of bacterial growth. The minimum concentration required for inhibiting the growth of P. acnes was considered as minimum inhibitory concentration (MIC).

[3] = Solubility in solvents (observed when recording NMR); type: physicochemical; conditions: most of the solvents except DMSO
Source text: In ^1H NMR spectrum, the phenolic OH (5-OH) adjacent to the carbonyl was assigned from the downfield signal at δ 13.36 ppm (70%) and 13.33 ppm (30%) and these two signals appeared due to the presence of the two conformers α and β in about 70:30 ratio. The assignment of two doublets at δ 7.15 ppm (˜30%) and 6.94 ppm (˜70%) was crucial in ^1H NMR spectrum. Nonetheless the disappearance of these two signals in D2O exchanged ^1H NMR spectrum (FIG. 5) ascertained that these two doublet signals are nothing but appeared due to the presence of the hydroxyl group (14-OH) sustaining powerful coupling with anomeric proton (14-H). Thus the signals at δ 7.15 ppm (d, ˜30%, β-OH, J=7.5 Hz) and at 6.94 ppm (d, ˜70%, α-OH, J=4.2 Hz) were assigned corresponding to the anomeric 14-OH. Similarly, though the anomeric proton (14-H) was expected to appear as a doublet however owing to further coupling with 14-OH, it appeared as two signals one as double doublets at δ 5.32 ppm (dd, ˜70%, 14-α-H, J=4.2 Hz, 2.1 Hz) and another one as triplet at 4.87 ppm (t, ˜30%, 14-β-H, J=7.8 Hz). The coupling interferences in 14-α/β-H due to 14-OH was disappeared in D2O exchanged ^1H NMR spectrum (FIG. 5) and signals were clearly appeared as doublets at δ 5.28 (d, ˜70%, 14-α-H, J=1.2 Hz) and 4.81 ppm (d, ˜30%, 14-β-H, J=8.7 Hz). As expected the signals ratio ˜70:30 were reflected in the ^13C NMR spectrum also. […]

Row | SMILES | zone of inhibition around the wells [1] | MIC [2] | solubility [3]
1 | CC1C(O)Oc2c(O)cc(O)c3c2C1Cc1c-3oc2c3c(cc(O)c2c1=O)OC(C)(C)C=C3 (stereo not drawn) [pyranocycloartobiloxanthone A (α & β), Pyranocycloartobiloxanthone A] | good inhibition | 2 µg/mL (≈ 4.44 µM) | relatively poor
2 | CCC[C@@H]1C[C@@H](C(=O)N[C@@H]([C@H]2O[C@H](SC)[C@H](O)[C@@H](O)[C@H]2O)[C@H](C)Cl)N(C)C1 [Clindamycin, reference compound] | – | 0.03 µg/mL (≈ 0.0706 µM) | –
3 | CC(C)=CCc1c(-c2cc(O)c(O)cc2O)oc2c3c(cc(O)c2c1=O)OC(C)(C)C=C3 [Artonine E] | good inhibition | 2 µg/mL (≈ 4.58 µM) | –

Source: US10898536B2, “Method of inhibiting propionibacterium acnes” (Sami Labs Limited, priority 2016, dated 2021)
